Molecules are shown by their SMILES.

Chain of Keap1 (Q14145 whole entry): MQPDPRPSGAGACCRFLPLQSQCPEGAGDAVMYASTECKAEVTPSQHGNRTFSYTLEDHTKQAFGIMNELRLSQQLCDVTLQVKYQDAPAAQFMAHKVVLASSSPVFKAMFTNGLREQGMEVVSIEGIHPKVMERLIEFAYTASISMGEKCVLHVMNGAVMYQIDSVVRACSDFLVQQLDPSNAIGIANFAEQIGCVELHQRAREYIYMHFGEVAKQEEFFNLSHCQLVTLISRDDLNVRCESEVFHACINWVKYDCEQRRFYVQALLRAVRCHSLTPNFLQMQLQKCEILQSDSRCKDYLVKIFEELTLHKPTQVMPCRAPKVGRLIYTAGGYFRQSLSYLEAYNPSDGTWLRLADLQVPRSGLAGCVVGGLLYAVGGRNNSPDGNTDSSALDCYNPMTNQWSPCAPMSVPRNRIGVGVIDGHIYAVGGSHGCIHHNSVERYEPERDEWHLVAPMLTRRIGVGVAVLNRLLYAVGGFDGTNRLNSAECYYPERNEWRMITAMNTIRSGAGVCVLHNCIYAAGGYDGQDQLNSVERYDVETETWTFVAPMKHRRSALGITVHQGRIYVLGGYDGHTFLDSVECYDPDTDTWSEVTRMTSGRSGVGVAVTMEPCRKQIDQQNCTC

This test addresses Keap1 (Homo sapiens (Human), UniProt Q14145). Description: HEK293 ARE luciferase assay. To be noted: HEK-293 ARE firefly luciferase transiently transfected cells; 18 h incubation; mean of 1 to 20 individual measurements. Format: cell-based. The gist of the method: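 Keap1 inhibition read as Nrf2-driven luciferase rise: compounds dosed in 10 points up to 100 μM (0.3% DMSO) on HEK-293 ARE luciferase cells, 10,000/well, 18 h at 37 °C, then SteadyGlo luminescence. Scaled between DMSO vehicle and 30 μM tBHQ; values average 1-20 runs.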
`COC1(c2ncc(F)cc2-c2c(C)nn(C)c2C)C=C(C#N)C(=O)C(C)(C)C1` (stereo not shown) [Compound 187, 3-[5-fluoro-3-(1,3,5-trimethyl-1H-pyrazol-4-yl)pyridin-2-yl]-3-methoxy-5,5-dimethyl-6-oxocyclohex-1-ene-1-carbonitrile] displayed an EC50 of 77 nM. Consider `COC1(c2ncc(F)cc2-c2ccn3ncnc3c2)C=C(C#N)C(=O)C(C)(C)C1` (stereo not shown) [Compound 188, 3-[5-fluoro-3-([1,2,4]triazolo[1,5-a]pyridin-7-yl)pyridin-2-yl]-3-methoxy-5,5-dimethyl-6-oxocyclohex-1-ene-1-carbonitrile], for which the 50% effective concentration (EC50) was 23 nM. The compound `COC1(c2ncc(F)cc2-c2c(C)nn(C)c2C)C=C(C#N)C(=O)C(C)(C)C1` (stereo not shown) [Compound 189, 3-[5-fluoro-3-(1,3,5-trimethyl-1H-pyrazol-4-yl)pyridin-2-yl]-3-methoxy-5,5-dimethyl-6-oxocyclohex-1-ene-1-carbonitrile] gave an EC50 of 1530 nM. With `COC1(c2ncc(F)cc2-c2ccn3ncnc3c2)C=C(C#N)C(=O)C(C)(C)C1` (stereo not shown) [Compound 190, 3-[5-fluoro-3-([1,2,4]triazolo[1,5-a]pyridin-7-yl)pyridin-2-yl]-3-methoxy-5,5-dimethyl-6-oxocyclohex-1-ene-1-carbonitrile], the midpoint of the response, the EC50, lay at 1680 nM. The compound `COC1(c2ncc(F)cc2-c2sc(C)nc2C)C=C(C#N)C(=O)C(C)(C)C1` (stereo not shown) [Compound 191, 3-[3-(2,4-dimethyl-1,3-thiazol-5-yl)-5-fluoropyridin-2-yl]-3-methoxy-5,5-dimethyl-6-oxocyclohex-1-ene-1-carbonitrile] yielded an EC50 of 12 nM. On to `COC1(c2ncc(F)cc2-c2cc[nH]c(=O)c2)C=C(C#N)C(=O)C(C)(C)C1` (stereo not shown) [Compound 192, 3-(5-fluoro-2′-oxo[1′,2′-dihydro[3,4′-bipyridine]]-2-yl)-3-methoxy-5,5-dimethyl-6-oxocyclohex-1-ene-1-carbonitrile], for which the EC50 was greater than 10000 nM. Consider `COC1(c2ncc(F)cc2-c2cccc(=O)[nH]2)C=C(C#N)C(=O)C(C)(C)C1` (stereo not shown) [Compound 193, 3-(5′-fluoro-6-oxo[1,6-dihydro[2,3′-bipyridine]]-2′-yl)-3-methoxy-5,5-dimethyl-6-oxocyclohex-1-ene-1-carbonitrile], for which the EC50 is greater than 10000 nM. Turning to `COC1(c2nc(C)c(-c3ccccn3)s2)C=C(C#N)C(=O)C2(CC2)C1` (stereo not shown) [Compound 194, 7-methoxy-7-[4-methyl-5-(pyridin-2-yl)-1,3-thiazol-2-yl]-4-oxospiro[2.5]oct-5-ene-5-carbonitrile], the EC50 is 203 nM. In the case of `COC1(c2ncc(F)cc2-c2sc(C)nc2C)C=C(C#N)C(=O)C(C)(C)C1` (stereo not shown) [Compound 195, 3-[3-(2,4-dimethyl-1,3-thiazol-5-yl)-5-fluoropyridin-2-yl]-3-methoxy-5,5-dimethyl-6-oxocyclohex-1-ene-1-carbonitrile] it was 1300 nM.

`COC1(c2ncc(F)cc2C(F)F)C=C(C#N)C(=O)C2(CC2)C1` (stereo not shown) [Compound 196, 7-[3-(difluoromethyl)-5-fluoropyridin-2-yl]-7-methoxy-4-oxospiro[2.5]oct-5-ene-5-carbonitrile] gave an EC50 of 46 nM. `CO[C@]1(c2ncc(Cl)cn2)C=C(C#N)C(=O)C(C)(C)C1` [Compound 214, (3S)-3-(5-chloropyrimidin-2-yl)-3-methoxy-5,5-dimethyl-6-oxocyclohex-1-ene-1-carbonitrile] showed an EC50 of 20 nM. In the case of `COC1(c2ccc(C)cn2)C=C(C#N)C(=O)C(C)(C)C1` (stereo not shown) [Compound 239, 3-methoxy-5,5-dimethyl-3-(5-methylpyridin-2-yl)-6-oxocyclohex-1-ene-1-carbonitrile] it was 50 nM; in that of `COC1(c2ccc(F)cn2)C=C(C#N)C(=O)C2(CCCC2)C1` (stereo not shown) [Compound 240, 9-(5-fluropyridin-2-yl)-9-methoxy-6-oxospiro[4.5]dec-7-ene-7-carbonitrile], 838 nM.

One may read the EC50 as the concentration at which the effect is half-maximal. Lower therefore signals a more potent agent.
